Where a name gives a salt, the structure may show the parent alone. Marks after values point to notes of the source that are not given here.
Key:
[1] = Evaluation of CI-1027 in female obese Zucker rats (body weight and liver weight); assay type: in vivo; conditions: for Body Weight Day 0: Day 0 (baseline), mean ± SEM; for Body Weight Day 0 / Body Weight Day 7 / Body Weight Day 14 / Body Weight Day 21 / Body Weight Day 28 / Body Weight Day 32 / Liver Weight Day 32 / Percent Liver/Body Weight: n = 6; for Body Weight Day 7: Day 7, mean ± SEM; for Body Weight Day 14: Day 14, mean ± SEM; for Body Weight Day 21: Day 21, mean ± SEM; for Body Weight Day 28: Day 28, mean ± SEM; for Body Weight Day 32 / Liver Weight Day 32 / Percent Liver/Body Weight: Day 32, mean ± SEM
Method: Adult female obese Zucker rats weighing 265 to 268 g were obtained from Genetic Models, Inc. The animals were maintained on a diet of pelleted rodent chow (Ralston Purina) and were given water ad libitum. The animals were housed in cages in a temperature controlled room, with a 12-hour light/12-hour dark cycle (lights were turned on at 6 AM each day). CI-1027 was suspended in a vehicle of 1.5% carboxymethylcellulose containing 0.2% Tween-20. A control group of six rats were dosed daily with vehicle alone. One group of six test animals received daily oral dosing (by gavage) of 2.5 mL/kg suspensions of CI-1027 at 30 mg/kg active drug, while another group of six animals received daily oral dosing of 2.5 mL/kg of suspension at 100 mg/kg of CI-1027. The pelleted rodent chow was available ad libitun, except on Days 0, 7, 14, 21, 28, and 32, when food was removed from the cages at 7:30 AM, and the animals were weighed within 2 hours following removal of the food. The food trays were replaced in the cages after the weights of all animals were measured.

[2] = Evaluation of CI-1027 in leptin receptor deficient mice (body weight, food consumption); assay type: in vivo

Q: Which “Body Weight Day 0” value ([1]; 30 mg/kg daily oral gavage) does the source give for CC(C)(CCCCOCCCCC(C)(C)C(=O)O)C(=O)O [CI-1027, 6-(5-carboxy-5-methyl-hexyloxy)-2,2-diiethyl-hexanoic acid, calcium salt] here?
A: 265 ± 4 g

Q: And the “Body Weight Day 7” value ([1]; 30 mg/kg daily oral gavage)?
A: 283 ± 4^a g

Q: And the “Body Weight Day 14” value ([1]; 30 mg/kg daily oral gavage)?
A: 299 ± 4^c g

Q: And the “Body Weight Day 21” value ([1]; 30 mg/kg daily oral gavage)?
A: 311 ± 3^c g

Q: What about the “Body Weight Day 28” value ([1]; 30 mg/kg daily oral gavage) of the same compound?
A: 317 ± 4^c g

Q: And the “Body Weight Day 32” value ([1]; 30 mg/kg daily oral gavage)?
A: 321 ± 4^c g

Q: And the “Liver Weight Day 32” value ([1]; 30 mg/kg daily oral gavage)?
A: 22.8 ± 1.0^c g

Q: And the “Percent Liver/Body Weight” value ([1]; 30 mg/kg daily oral gavage)?
A: 7.09 ± 0.3^c Percent

Q: What about the “Body Weight Day 0” value ([1]; 100 mg/kg daily oral gavage) of the same compound?
A: 265 ± 4 g

Q: And the “Body Weight Day 7” value ([1]; 100 mg/kg daily oral gavage)?
A: 286 ± 3^a g

Q: What about the “Body Weight Day 14” value ([1]; 100 mg/kg daily oral gavage) of the same compound?
A: 302 ± 4^b g

Q: What about the “Body Weight Day 21” value ([1]; 100 mg/kg daily oral gavage) of the same compound?
A: 314 ± 4^c g

Q: And the “Body Weight Day 28” value ([1]; 100 mg/kg daily oral gavage)?
A: 326 ± 5^c g

Q: What about the “Body Weight Day 32” value ([1]; 100 mg/kg daily oral gavage) of the same compound?
A: 326 ± 5^c g

Q: And the “Liver Weight Day 32” value ([1]; 100 mg/kg daily oral gavage)?
A: 24.8 ± 1.3^c g

Q: And the “Percent Liver/Body Weight” value ([1]; 100 mg/kg daily oral gavage)?
A: 7.53 ± 0.3^c Percent

Q: What about the reduction in weight ([1]; all treatment groups (30 and 100 mg/kg), over 32 days) of the same compound?
A: significant reduction in weight

Q: What about the “effect on body weight” value [2] of the same compound?
A: no significant effect

Q: And the “effect on food consumption” value [2]?
A: no significant effect

— patent publication US20030212118A1, “Treatment of eating disorders using carboxyalkylethers” (priority 2000, published 2003)
